Earlier results, collected in US20200018753A1, “NON-INVASIVE BIOMARKER TO IDENTIFY SUBJECT AT RISK OF PRETERM DELIVERY” (NYU Winthrop Hospital, priority 2012, published 2020).

System: Prostaglandin D2 formation
Settings: IL-1β-stimulated SK-N-SH neuronal cells; presumably by inhibiting cyclooxygenase (COX), especially COX-2

Oc1ccc(C=Cc2cc(O)cc(O)c2)cc1 [Resveratrol]
formation of Prostaglandin D2: reduce formation of Prostaglandin D2
